According to ChEMBL document CHEMBL3046334 (Med Chem Res, 2012):

Molecular target: T1, Prostaglandin G/H synthase 2 (Homo sapiens, UniProt P35354)
T1 sequence (P35354 whole entry): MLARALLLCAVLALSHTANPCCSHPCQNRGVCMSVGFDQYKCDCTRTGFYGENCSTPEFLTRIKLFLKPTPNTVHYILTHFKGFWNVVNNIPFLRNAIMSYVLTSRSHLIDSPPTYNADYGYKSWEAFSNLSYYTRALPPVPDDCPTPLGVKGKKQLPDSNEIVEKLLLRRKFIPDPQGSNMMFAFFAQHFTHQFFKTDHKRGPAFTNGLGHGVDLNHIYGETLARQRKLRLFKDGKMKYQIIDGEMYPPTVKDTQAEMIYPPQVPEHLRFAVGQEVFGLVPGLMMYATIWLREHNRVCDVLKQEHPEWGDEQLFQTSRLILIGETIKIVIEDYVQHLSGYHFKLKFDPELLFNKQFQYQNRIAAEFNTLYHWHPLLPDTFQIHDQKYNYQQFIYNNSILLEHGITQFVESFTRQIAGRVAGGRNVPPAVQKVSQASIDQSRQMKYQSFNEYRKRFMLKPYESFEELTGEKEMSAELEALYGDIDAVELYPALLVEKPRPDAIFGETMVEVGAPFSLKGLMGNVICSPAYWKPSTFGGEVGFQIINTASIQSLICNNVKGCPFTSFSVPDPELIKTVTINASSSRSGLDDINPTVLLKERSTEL
Experiment: Inhibition of COX2 in Homo sapiens (human) whole blood

Q: For CS(=O)(=O)c1ccc(-c2nc(NCCCc3cccs3)cc(C(F)(F)F)n2)cc1, which IC50 is on record?
A: 1210 nM

Q: For CS(=O)(=O)c1ccc(-c2nc(NC3CC=CCC3)cc(C(F)(F)F)n2)cc1 (centres undefined), which IC50 is on record?
A: 32.9 nM

Q: How did the IC50 turn out when NS(=O)(=O)c1ccc(-c2nc(NCc3ccccc3)cc(C(F)(F)F)n2)cc1 was run?
A: 3330 nM

Q: For Cn1cccc1CCCNc1cc(C(F)(F)F)nc(-c2ccc(S(C)(=O)=O)cc2)n1, which IC50 is on record?
A: 3980 nM
